The source made the active and inactive calls.
What was measured:
[1] = molecular target: NACHT, LRR and PYD domains-containing protein 3 (Mus musculus) (UniProt Q8R4B8); test: Inhibition of NLRP3 inflammasome activation activation in LPS/nigericin stimulated mouse J774.A1 cells assessed as reduction in IL-1beta production pretreated with LPS for 3 hrs prior to compound addition for 30 mins followed by nigericin addition and measured after 45 mins by ELISA; format: cell-based; settings: dose 0.001-2000 nM, time 75.0 min
[2] = molecular target: NACHT, LRR and PYD domains-containing protein 3 (Mus musculus) (UniProt Q8R4B8); test: Inhibition of NLRP3 inflammasome activation in mouse J774.A1 cells assessed as reduction in NLRP3 mRNA expression at 0.5 to 2 uM preincubated for 30 mins followed by LPS stimulation for 24 hrs by RT-qPCR analysis; format: cell-based; settings: dose 0.5-2 µM, time 24.5 hrs
[3] = system: Caspase-1 (Homo sapiens), P29466 [C397A]; test: Binding affinity to Flag-tagged caspase-1 C397A mutant (unknown origin) expressed in HEK293T cells by pull-down assay; format: cell-based
[4] = molecular target: T1, Caspase-3 (Mus musculus) (UniProt P70677); test: Inhibition of cisplatin induced caspase-3 activation in mouse J774.A1 cells at 2 uM preincubated for 30 mins followed by cisplatin addition and incubated overnight; format: cell-based
T1 sequence (whole entry): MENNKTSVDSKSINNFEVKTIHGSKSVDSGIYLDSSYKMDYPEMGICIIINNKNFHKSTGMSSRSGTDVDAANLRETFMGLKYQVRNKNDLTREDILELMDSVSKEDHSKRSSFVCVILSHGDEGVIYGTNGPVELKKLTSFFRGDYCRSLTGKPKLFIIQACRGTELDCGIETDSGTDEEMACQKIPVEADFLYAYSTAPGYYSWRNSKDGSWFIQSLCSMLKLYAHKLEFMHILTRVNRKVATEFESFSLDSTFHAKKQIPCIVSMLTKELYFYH

[5] = system: BMDM; test: Effect on cleaved caspase-11 expression in mouse BMDM cells at 0.5 to 2 uM pretreated with pam3CSK4 for 3 hrs followed by compound addition for 30 mins prior to cytosolic LPS stimulation for 16 hrs by ELISA; format: functional, cell-based; settings: dose 0.5-2 µM, time 16.5 hrs
[6] = molecular target: NACHT, LRR and PYD domains-containing protein 3 (Mus musculus) (UniProt Q8R4B8); test: Inhibition of NLRP3 inflammasome activation in LPS primed Casp1 knockout mouse BMDM cells transfected with caspase-1 C284A mutant assessed as reduction in IL-1beta release at 2 uM preincubated for 30 mins followed by nigericin stimulation; format: cell-based
[7] = molecular target: T2, Caspase-1 (Mus musculus) (UniProt P29452); test: Irreversible binding affinity to caspase-1 in LPS-induced mouse J774.A1 cells assessed as reduction in IL-1beta level at 0.5 to 2 uM pretreated with LPS for 3 hrs followed by compound addition for 30 mins prior to compound washout then nigericin addition for 1 hr by ELISA; format: cell-based; settings: dose 0.5-2 µM
T2 sequence (whole entry): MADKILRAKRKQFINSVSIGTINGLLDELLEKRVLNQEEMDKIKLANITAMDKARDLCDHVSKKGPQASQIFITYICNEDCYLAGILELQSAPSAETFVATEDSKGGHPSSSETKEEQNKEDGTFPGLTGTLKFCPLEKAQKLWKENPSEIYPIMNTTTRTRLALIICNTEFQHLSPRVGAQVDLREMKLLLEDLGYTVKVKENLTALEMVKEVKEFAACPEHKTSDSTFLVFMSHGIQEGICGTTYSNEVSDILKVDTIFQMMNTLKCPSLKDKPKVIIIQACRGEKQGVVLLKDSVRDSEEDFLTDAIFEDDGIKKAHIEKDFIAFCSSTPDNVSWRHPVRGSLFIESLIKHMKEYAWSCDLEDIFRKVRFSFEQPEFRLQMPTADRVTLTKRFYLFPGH

[8] = system: Mus musculus; test: Anti-inflammatory activity in MSU/C18:0 free fatty acid induced Kunming mouse model of gouty arthritis assessed as reduction IL-1beta release at 5 to 20 mg/kg, ip preadministered with compound for 30 mins followed by MSU/C18:0 free fatty acid injection and measured after 24 hrs by ELISA; format: functional, organism-based; settings: dose 5-20 mg/kg, time 24.5 hrs
[9] = molecular target: NACHT, LRR and PYD domains-containing protein 3 (Mus musculus) (UniProt Q8R4B8); test: Inhibition of NLRP3 inflammasome activation in LPS/ATP stimulated mouse J774.A1 cells assessed as reduction in IL-1beta production incubated for 30 mins by ELISA; format: cell-based
[10] = system: THP-1; test: Effect on pro-caspase 1 protein expression in LPS/nigericin stimulated human THP-1 cells supernatant at 0.5 to 2 uM by Western blotting analysis; format: functional, cell-based; settings: dose 0.5-2 µM
[11] = system: HEK293T; test: Inhibition of recombinant caspae-1 C397A mutant (unknown origin) to GSDMD (unknown origin) interaction expressed in HEK293T cells; format: cell-based; settings: Homo sapiens
[12] = system: THP-1; test: Effect on pro-1L-1beta protein expression in LPS/ATP stimulated human THP-1 cells supernatant by Western blotting analysis; format: functional, cell-based
[13] = system: Mus musculus; test: Anti-inflammatory activity in LPS/MSU-induced Casp1 knockout C57BL/6 mouse model of acute peritonitis assessed as reduction in IL-1beta expression at 20 mg/kg, ip preadministered intraperitoneally with compound for 30 mins followed by MSU injection and measured after 6 hrs by ELISA; format: functional, organism-based
[14] = molecular target: T3, Caspase-7 (Mus musculus) (UniProt P97864); test: Inhibition of cisplatin induced caspase-7 activation in mouse J774.A1 cells at 2 uM preincubated for 30 mins followed by cisplatin addition and incubated overnight; format: cell-based
T3 sequence (whole entry): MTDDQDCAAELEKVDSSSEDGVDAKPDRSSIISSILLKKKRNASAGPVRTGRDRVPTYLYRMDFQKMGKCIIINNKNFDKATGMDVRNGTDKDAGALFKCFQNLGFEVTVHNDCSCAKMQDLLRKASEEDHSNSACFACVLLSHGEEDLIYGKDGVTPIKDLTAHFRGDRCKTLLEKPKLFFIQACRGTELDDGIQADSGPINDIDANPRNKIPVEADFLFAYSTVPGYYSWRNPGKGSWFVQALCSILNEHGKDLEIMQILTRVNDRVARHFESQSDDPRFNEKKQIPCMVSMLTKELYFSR

[15] = system: HEK293T; test: Inhibition of recombinant caspae-1 C244A mutant (unknown origin) to GSDMD (unknown origin) interaction expressed in HEK293T cells; format: cell-based; settings: Homo sapiens
[16] = molecular target: T4, Caspase-1 (Homo sapiens, UniProt P29466); test: Inhibition of recombinant human caspase-1 expressed in Escherichia coli BL21 cells using […] as substrate incubated for 30 mins
T4 sequence (P29466 whole entry): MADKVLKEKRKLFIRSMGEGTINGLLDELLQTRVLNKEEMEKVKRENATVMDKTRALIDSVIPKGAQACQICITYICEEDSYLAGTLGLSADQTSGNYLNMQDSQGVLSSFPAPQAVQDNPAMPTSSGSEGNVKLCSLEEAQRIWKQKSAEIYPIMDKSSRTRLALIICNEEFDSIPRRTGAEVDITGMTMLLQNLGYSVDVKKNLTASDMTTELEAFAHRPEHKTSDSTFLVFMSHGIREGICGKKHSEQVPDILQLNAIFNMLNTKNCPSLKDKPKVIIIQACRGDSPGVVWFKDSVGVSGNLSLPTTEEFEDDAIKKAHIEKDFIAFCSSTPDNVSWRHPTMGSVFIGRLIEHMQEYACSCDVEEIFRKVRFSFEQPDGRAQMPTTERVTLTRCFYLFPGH

[17] = system: HEK293T; test: Inhibition of recombinant caspae-1 C285A mutant (unknown origin) to GSDMD (unknown origin) interaction expressed in HEK293T cells; format: cell-based; settings: Homo sapiens

Sequence of NACHT, LRR and PYD domains-containing protein 3 (Mus musculus) (Q8R4B8 whole entry, the tested form may be a part): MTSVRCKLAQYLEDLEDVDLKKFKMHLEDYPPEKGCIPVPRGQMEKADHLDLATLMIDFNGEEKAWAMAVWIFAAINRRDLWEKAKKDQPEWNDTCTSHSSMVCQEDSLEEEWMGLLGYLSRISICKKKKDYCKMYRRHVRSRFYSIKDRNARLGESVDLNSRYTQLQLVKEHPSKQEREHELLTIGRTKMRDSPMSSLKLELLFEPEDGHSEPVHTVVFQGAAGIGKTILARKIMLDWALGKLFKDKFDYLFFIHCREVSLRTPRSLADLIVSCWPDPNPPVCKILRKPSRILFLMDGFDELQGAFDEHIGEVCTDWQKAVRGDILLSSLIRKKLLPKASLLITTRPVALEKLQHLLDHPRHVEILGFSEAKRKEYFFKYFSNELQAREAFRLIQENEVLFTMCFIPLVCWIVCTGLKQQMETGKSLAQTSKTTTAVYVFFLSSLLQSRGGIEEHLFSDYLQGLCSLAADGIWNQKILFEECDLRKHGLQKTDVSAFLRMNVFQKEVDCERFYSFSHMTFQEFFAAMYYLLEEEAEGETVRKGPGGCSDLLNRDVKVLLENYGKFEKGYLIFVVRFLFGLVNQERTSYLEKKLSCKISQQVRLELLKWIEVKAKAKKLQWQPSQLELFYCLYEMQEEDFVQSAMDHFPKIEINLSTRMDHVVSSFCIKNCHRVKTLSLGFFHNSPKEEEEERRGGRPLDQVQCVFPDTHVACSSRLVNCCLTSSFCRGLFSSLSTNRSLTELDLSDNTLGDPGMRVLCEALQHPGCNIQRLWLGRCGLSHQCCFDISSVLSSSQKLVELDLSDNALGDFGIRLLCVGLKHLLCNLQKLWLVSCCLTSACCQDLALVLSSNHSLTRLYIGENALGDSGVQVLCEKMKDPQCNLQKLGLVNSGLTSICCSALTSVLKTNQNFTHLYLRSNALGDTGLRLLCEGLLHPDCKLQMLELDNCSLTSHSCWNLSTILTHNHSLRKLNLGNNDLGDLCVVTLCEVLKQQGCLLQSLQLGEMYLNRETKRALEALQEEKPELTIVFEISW
Sequence of Caspase-1 (Homo sapiens), P29466 [C397A] (P29466 whole entry C397A): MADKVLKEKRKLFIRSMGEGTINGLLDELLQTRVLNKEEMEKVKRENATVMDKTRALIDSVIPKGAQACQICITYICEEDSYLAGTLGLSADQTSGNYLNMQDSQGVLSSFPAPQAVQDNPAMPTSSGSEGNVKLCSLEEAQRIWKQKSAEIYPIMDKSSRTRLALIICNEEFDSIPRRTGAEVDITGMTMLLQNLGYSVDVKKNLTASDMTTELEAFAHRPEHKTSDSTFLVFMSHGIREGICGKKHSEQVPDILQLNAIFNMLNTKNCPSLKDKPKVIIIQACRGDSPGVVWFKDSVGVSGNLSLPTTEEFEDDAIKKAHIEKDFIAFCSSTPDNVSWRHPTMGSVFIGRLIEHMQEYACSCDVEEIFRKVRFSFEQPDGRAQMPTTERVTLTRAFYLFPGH

COc1ccc2c(c1)[C@]1(C=C[C@H](N=C=S)C[C@H]1C(=O)OC(C)(C)C)C(=O)N2C(=O)OCc1ccccc1
inactive: Activity [3] | inhibition [4] | Activity [5] | inhibition [6] | Activity [10] | inhibition [11] | Activity [12] | Activity [13] | inhibition [14] | inhibition [17]
650 nM: IC50 [16]
active: inhibition [1] Dose-Dependent Effect | inhibition [2] | Activity [7] | Activity [8] | inhibition [9] | inhibition [15]
